Conditions: for mass density / vapor or sublimation pressure / viscosity / speed of sound: Liquid; for vapor or sublimation pressure: Ebulliometric method (Recirculating still); for surface tension liquid-gas: Drop volume; for viscosity: Capillary tube (Ostwald / Ubbelohde) method; for speed of sound: Pulse-echo method

OCC1CCCO1 (stereo not given) [2-tetrahydrofurylmethanol]
Conditions | mass density [kg/m3] | speed of sound [m/s] | viscosity [mPa·s]
313.15 K, 7500 kPa | 1041.89 | – | –
313.15 K, 10000 kPa | 1043.41 | – | –
313.15 K, 20000 kPa | 1048.93 | – | –
313.15 K, 30000 kPa | 1054.21 | – | –
313.15 K, 40000 kPa | 1059.19 | – | –
313.15 K, 50000 kPa | 1063.91 | – | –
313.15 K, 60000 kPa | 1068.44 | – | –
315.65 K, 101.33 kPa | – | 1424.1 | 3.374
318.15 K, 100 kPa | 1032.83 | – | –
318.15 K, 101.33 kPa | – | 1415.4 | 3.177
318.15 K, 2500 kPa | 1034.57 | – | –
318.15 K, 5000 kPa | 1036.11 | – | –
318.15 K, 7500 kPa | 1037.62 | – | –
318.15 K, 10000 kPa | 1039.11 | – | –
318.15 K, 20000 kPa | 1044.81 | – | –
318.15 K, 30000 kPa | 1050.15 | – | –
318.15 K, 40000 kPa | 1055.24 | – | –
318.15 K, 50000 kPa | 1060.12 | – | –
318.15 K, 60000 kPa | 1064.68 | – | –
320.65 K, 101.33 kPa | – | 1406.8 | 2.996
323.15 K, 100 kPa | 1028.47 | – | –
323.15 K, 101.33 kPa | – | 1398.1 | 2.83
323.15 K, 2500 kPa | 1030.3 | – | –
323.15 K, 5000 kPa | 1031.87 | – | –
323.15 K, 7500 kPa | 1033.41 | – | –
323.15 K, 10000 kPa | 1034.93 | – | –
323.15 K, 20000 kPa | 1040.79 | – | –
323.15 K, 30000 kPa | 1046.28 | – | –
323.15 K, 40000 kPa | 1051.44 | – | –
323.15 K, 50000 kPa | 1056.41 | – | –
323.15 K, 60000 kPa | 1061.07 | – | –
325.65 K, 101.33 kPa | – | 1389.4 | 2.677
328.15 K, 100 kPa | 1024.08 | – | –
328.15 K, 101.33 kPa | – | 1380.8 | 2.535
328.15 K, 2500 kPa | 1025.88 | – | –
328.15 K, 5000 kPa | 1027.49 | – | –
328.15 K, 7500 kPa | 1029.13 | – | –
328.15 K, 10000 kPa | 1030.63 | – | –
328.15 K, 20000 kPa | 1036.6 | – | –
328.15 K, 30000 kPa | 1042.2 | – | –
328.15 K, 40000 kPa | 1047.5 | – | –
328.15 K, 50000 kPa | 1052.52 | – | –
328.15 K, 60000 kPa | 1057.3 | – | –
330.65 K, 101.33 kPa | – | 1372.1 | 2.404
333.15 K, 100 kPa | 1019.68 | – | –
333.15 K, 101.33 kPa | – | 1363.5 | 2.282
333.15 K, 2500 kPa | 1021.52 | – | –
333.15 K, 5000 kPa | 1023.18 | – | –
333.15 K, 7500 kPa | 1024.84 | – | –
333.15 K, 10000 kPa | 1026.39 | – | –
333.15 K, 20000 kPa | 1032.49 | – | –
333.15 K, 30000 kPa | 1038.22 | – | –
333.15 K, 40000 kPa | 1043.64 | – | –
333.15 K, 50000 kPa | 1048.73 | – | –
333.15 K, 60000 kPa | 1053.6 | – | –
335.65 K, 101.33 kPa | – | 1354.8 | 2.169
338.15 K, 100 kPa | 1015.24 | – | –
338.15 K, 101.33 kPa | – | 1346.2 | 2.064
338.15 K, 2500 kPa | 1017.04 | – | –
338.15 K, 5000 kPa | 1018.75 | – | –
338.15 K, 7500 kPa | 1020.45 | – | –
338.15 K, 10000 kPa | 1022.06 | – | –
338.15 K, 20000 kPa | 1028.31 | – | –
338.15 K, 30000 kPa | 1034.16 | – | –
338.15 K, 40000 kPa | 1039.68 | – | –
338.15 K, 50000 kPa | 1044.89 | – | –
338.15 K, 60000 kPa | 1049.83 | – | –

Conditions | surface tension liquid-gas [mN/m] | vapor or sublimation pressure [kPa]
313.15 K | – | 0.21
315.65 K | 35.74 | –
318.15 K | 35.48 | 0.31
320.65 K | 35.23 | –
323.15 K | 34.98 | 0.43
325.65 K | 34.72 | –
328.15 K | 34.47 | 0.63
330.65 K | 34.22 | –
333.15 K | 33.96 | 0.86
335.65 K | 33.71 | –
338.15 K | 33.46 | 1.15
343.15 K | – | 1.55
348.15 K | – | 2.11
353.15 K | – | 2.72
358.15 K | – | 3.53
363.15 K | – | 4.51
368.15 K | – | 5.72
373.15 K | – | 7.22
378.15 K | – | 9.11
383.15 K | – | 11.18
388.15 K | – | 13.68
393.15 K | – | 16.64
398.15 K | – | 20.17
403.15 K | – | 24.22
408.15 K | – | 28.63
413.15 K | – | 34.22
418.15 K | – | 40.19
423.15 K | – | 47.32
428.15 K | – | 56.31
433.15 K | – | 65.02
438.15 K | – | 74.02
443.15 K | – | 84.98
448.15 K | – | 97.93

101.33 kPa, Vibrating tube method
Conditions | mass density [kg/m3]
315.65 K | 1035
318.15 K | 1032.83
320.65 K | 1030.65
323.15 K | 1028.47
325.65 K | 1026.28
328.15 K | 1024.08
330.65 K | 1021.88
333.15 K | 1019.68
335.65 K | 1017.46
338.15 K | 1015.24

Source: the NIST ThermoML archive (doi:10.1021/je400783h)
